# Measured values taken from ChEMBL document CHEMBL3885881, “DrugMatrix”.
# Species on record: Rattus norvegicus
# Assay: DrugMatrix - Regimen: Daily Repeat
# Format: toxicity, organism-based, Sprague-Dawley
# Set-up: regimen Daily Repeat, gender Male, age 6-8 weeks
# Conditions: in vivo, po, 84 mg/kg, route oral GAVAGE, dose level High, vehicle 100 % WATER; for ABSOLUTE BASOPHIL / ABSOLUTE EOSINOPHIL / ABSOLUTE LYMPHOCYTE / ABSOLUTE MONOCYTE / ABSOLUTE SEGMENTED NEUTROPHIL / BASOPHIL / EOSINOPHIL / ERYTHROCYTE COUNT / HEMATOCRIT / HEMOGLOBIN / LEUKOCYTE COUNT / LYMPHOCYTE / MEAN CORPUSCULAR HEMOGLOBIN / MEAN CORPUSCULAR HEMOGLOBIN CONCENTRATION / MEAN CORPUSCULAR VOLUME / MONOCYTE / NEUTROPHIL / NUCLEATED RED BLOOD CELLS / PLATELET COUNT: tissue Blood; for ALANINE AMINOTRANSFERASE / ALBUMIN / ALKALINE PHOSPHATASE / ASPARTATE AMINOTRANSFERASE / BLOOD UREA NITROGEN / CARBON DIOXIDE / CHLORIDE / CHOLESTEROL / CREATINE PHOSPHOKINASE / CREATININE / GLUCOSE / LACTATE DEHYDROGENASE / LIPASE / PHOSPHORUS / POTASSIUM / SODIUM / TOTAL BILIRUBIN / TOTAL PROTEIN / URIC ACID: tissue Plasma
smiles,measurement,setting,value
Cc1nccn1CC1CCc2c(c3ccccc3n2C)C1=O (stereo unspecified) [ONDANSETRON],ABSOLUTE BASOPHIL,"72 h, time 3 day",0 CELLS/uL
same,ABSOLUTE EOSINOPHIL,"72 h, time 3 day",113.33 CELLS/uL
same,ABSOLUTE LYMPHOCYTE,"72 h, time 3 day",15932.67 CELLS/uL
same,ABSOLUTE MONOCYTE,"72 h, time 3 day",298.67 CELLS/uL
same,ABSOLUTE SEGMENTED NEUTROPHIL,"72 h, time 3 day",1422 CELLS/uL
same,BASOPHIL,"72 h, time 3 day",0%
same,EOSINOPHIL,"72 h, time 3 day",0.67%
same,ERYTHROCYTE COUNT,"72 h, time 3 day",5.63 x10E6/uL
same,HEMATOCRIT,"72 h, time 3 day",35.6%
same,HEMOGLOBIN,"72 h, time 3 day",14.17 G/DL
same,LEUKOCYTE COUNT,"72 h, time 3 day",17.77 x10E3/uL
same,LYMPHOCYTE,"72 h, time 3 day",90%
same,MEAN CORPUSCULAR HEMOGLOBIN,"72 h, time 3 day",25.3 pg
same,MEAN CORPUSCULAR HEMOGLOBIN CONCENTRATION,"72 h, time 3 day",39.83 G/DL
same,MEAN CORPUSCULAR VOLUME,"72 h, time 3 day",63.53 fL
same,MONOCYTE,"72 h, time 3 day",1.67%
same,NEUTROPHIL,"72 h, time 3 day",7.67%
same,NUCLEATED RED BLOOD CELLS,"72 h, time 3 day",0 /100WBC
same,PLATELET COUNT,"72 h, time 3 day",1296 x10E3/uL
same,ALANINE AMINOTRANSFERASE,"72 h, time 3 day",62.67 u/L
same,ALBUMIN,"72 h, time 3 day",4.27 G/DL
same,ALKALINE PHOSPHATASE,"72 h, time 3 day",366.67 u/L
same,ASPARTATE AMINOTRANSFERASE,"72 h, time 3 day",100.67 u/L
same,BLOOD UREA NITROGEN,"72 h, time 3 day",14.67 mg/dL
same,CARBON DIOXIDE,"72 h, time 3 day",26.67 mmol/L
same,CHLORIDE,"72 h, time 3 day",101.33 MEQ/L
same,CHOLESTEROL,"72 h, time 3 day",73.67 mg/dL
same,CREATINE PHOSPHOKINASE,"72 h, time 3 day",312.67 u/L
same,CREATININE,"72 h, time 3 day",0.28 mg/dL
same,GLUCOSE,"72 h, time 3 day",150 mg/dL
same,LACTATE DEHYDROGENASE,"72 h, time 3 day",488.67 u/L
same,LIPASE,"72 h, time 3 day",9.67 u/L
same,PHOSPHORUS,"72 h, time 3 day",13.83 mg/dL
same,POTASSIUM,"72 h, time 3 day",7.1 MEQ/L
same,SODIUM,"72 h, time 3 day",145.17 MEQ/L
same,TOTAL BILIRUBIN,"72 h, time 3 day",0.17 mg/dL
same,TOTAL PROTEIN,"72 h, time 3 day",5.87 G/DL
same,URIC ACID,"72 h, time 3 day",1.77 mg/dL
same,ABSOLUTE BASOPHIL,"120 h, time 5 day",0 CELLS/uL
same,ABSOLUTE EOSINOPHIL,"120 h, time 5 day",0 CELLS/uL
same,ABSOLUTE LYMPHOCYTE,"120 h, time 5 day",12972 CELLS/uL
same,ABSOLUTE MONOCYTE,"120 h, time 5 day",0 CELLS/uL
same,ABSOLUTE SEGMENTED NEUTROPHIL,"120 h, time 5 day",828 CELLS/uL
same,BASOPHIL,"120 h, time 5 day",0%
same,EOSINOPHIL,"120 h, time 5 day",0%
same,ERYTHROCYTE COUNT,"120 h, time 5 day",5.39 x10E6/uL
same,HEMATOCRIT,"120 h, time 5 day",33.4%
same,HEMOGLOBIN,"120 h, time 5 day",13.9 G/DL
same,LEUKOCYTE COUNT,"120 h, time 5 day",13.8 x10E3/uL
same,LYMPHOCYTE,"120 h, time 5 day",94%
same,MEAN CORPUSCULAR HEMOGLOBIN,"120 h, time 5 day",25.8 pg
same,MEAN CORPUSCULAR HEMOGLOBIN CONCENTRATION,"120 h, time 5 day",41.6 G/DL
same,MEAN CORPUSCULAR VOLUME,"120 h, time 5 day",61.9 fL
same,MONOCYTE,"120 h, time 5 day",0%
same,NEUTROPHIL,"120 h, time 5 day",6%
same,NUCLEATED RED BLOOD CELLS,"120 h, time 5 day",0 /100WBC
same,PLATELET COUNT,"120 h, time 5 day",1460 x10E3/uL
same,ALANINE AMINOTRANSFERASE,"120 h, time 5 day",63 u/L
same,ALBUMIN,"120 h, time 5 day",4.2 G/DL
same,ALKALINE PHOSPHATASE,"120 h, time 5 day",265 u/L
same,ASPARTATE AMINOTRANSFERASE,"120 h, time 5 day",62 u/L
same,BLOOD UREA NITROGEN,"120 h, time 5 day",20 mg/dL
same,CARBON DIOXIDE,"120 h, time 5 day",30 mmol/L
same,CHLORIDE,"120 h, time 5 day",103 MEQ/L
same,CHOLESTEROL,"120 h, time 5 day",69 mg/dL
same,CREATINE PHOSPHOKINASE,"120 h, time 5 day",151 u/L
same,CREATININE,"120 h, time 5 day",0.29 mg/dL
same,GLUCOSE,"120 h, time 5 day",150 mg/dL
same,LACTATE DEHYDROGENASE,"120 h, time 5 day",89 u/L
same,LIPASE,"120 h, time 5 day",10 u/L
same,PHOSPHORUS,"120 h, time 5 day",11.8 mg/dL
same,POTASSIUM,"120 h, time 5 day",6.81 MEQ/L
same,SODIUM,"120 h, time 5 day",145.9 MEQ/L
same,TOTAL BILIRUBIN,"120 h, time 5 day",0.1 mg/dL
same,TOTAL PROTEIN,"120 h, time 5 day",6.2 G/DL
same,URIC ACID,"120 h, time 5 day",1.4 mg/dL
